Where no end group is shown, it is not given here.
Assays:
Staphylococcus aureus = assay: growth-killing curve determination, 60 minutes at 37° C., CFU; assay type: cell-based
Protocol: (§1) Different techniques were used to test for the antimicrobial activity of ubiquicidine and peptides derived therefrom.
(§2) In the control incubations the bacteria multiplied a number of times (not shown).
(§3) Peptides were prepared using an Abimed AMS multiple peptide synthesizer and a fixed phase (tentagel AC, a polymer of polyethylene glycol spacer linked to a polystyrene matrix) (de Koster et al. (1995) J. Immunol. Methods 187:179-188). After completion of the synthesis the peptide was released from the fixed phase using a trifluoroacetic acid water(19:1) mixture and the peptides were subsequently precipitated with an ether pentane(1:1) mixture at […]. After centrifugation the obtained pep-tides were dried at 40° C. for 15 minutes. The peptides were subsequently dissolved in 10% acetic acid and concentrated by means of vacuum centrifugation. The purity of the peptides was determined using HPLC. The antimicrobial activity of these peptide fragments was determined as described in Example 1 under 2.3.

Klebsiella pneumoniae = assay: as above; assay type: cell-based
Protocol: as §1, §2, §3

micro-organisms = assay: growth-killing test / in vitro antimicrobial action (IC 99%); assay type: cell-based
Text: Peptide fragments derived from ubiquicidine comprise a preferably continuous series of at least 3, preferably at least 8 amino acids from the amino acid sequence of ubiquicidine as shown in FIG. 1. For an average skilled person it is simple to ascertain whether a peptide fragment with a series of preferably continuous amino acids chosen from the amino acid sequence of ubiquicidine does actually have antimicrobial activity and thus meets the requirements of the invention. A simple standard test for determining antimicrobial activity is for instance the universally known growth-killing test, i.e. determining of the concentration of an antimicrobial agent which kills 99% of the micro-organisms (IC 99%). Designated by “peptide (fragments)” in this application are therefore all amino acid chains which are smaller than the ubiquicidine itself, but the amino acid sequence of which is to be found, preferably continuously, in the ubiquicidine. The length of such peptide (fragments) can vary from 3 to 58 amino acids, wherein possible extra amino acids added as modification are not included.
as §1

[1] = design: species or system mice; details: mouse, in vivo
Protocol: Reference is made to FIG. 11 for a schematic view of the experimental infection and treatment of the mice. In summary, mice-were infected intramuscularly in the right thigh muscle with about 10^6 bacteria and after 5 minutes injected intraperitoneally with about 25 μg (labelled) peptide. At different points in time after injection of the peptide the animals were killed and the right thigh muscle was removed, homogenized, and finally the number of bacteria in the homogenate was determined using microbiological plate techniques, or accumulation of the labelled peptide was determined by means of a γ-camera. This test involved animals which were normal and immunocompromised (injection with cyclophosphamide, “total body” radiation).
(§4) Mice were infected in the right thigh muscle with Klebsiella pneumoniae and 25 μg ^99mTc-labelled ubiquicidine (1-18) or ubiquicidine (18-35) was subsequently injected intraperitoneally. At different points in time after injection of the peptide the amount of activity in the right (test) and left (control) thigh muscle of the mouse was measured using a γ-camera. The results are shown in FIG. 12 as a ratio of the values in the right thigh muscle and the left thigh muscle, i.e. “target to non-target ratio”. For the purpose of comparison the results for human defensin and IgG are also shown. The target to non-target ratios for infections and sterile inflammations were also compared (FIG. 13).

[2] = localization of 99mTc-labelled peptides with γ-camera in mice infected with Staphylococcus aureus or with sterile inflammations; assay type: in vivo; details: target to non-target ratios, FIG. 13
Protocol: Mice were infected intramuscularly with about 10^6 Staphylococcus aureus bacteria (ATCC 25923) and subsequently injected intraperitoneally with 25 μg ^99mTc-peptide. Mice were also injected intramuscularly with about 1×10^8 heat-killed (1 hour, 100° C.)S. aureus, 1 μg endotoxin or 100 ng phorbol myristate acetate (PMA) in order to cause sterile inflammations. At different points in time after injection of the peptide the radioactivity was measured in the circulation (heart), determined organs (liver, kidney, bladder and spleen) and in both thigh muscles using a γ-camera.
as §4

[3] = in vivo; cited from earlier work

ubiquicidine (29-41): synthetic peptide fragment of ubiquicidine, amino acids 29-41, sequence in FIG. 1 (TGRAKRRMQYNRR; Small ribosomal subunit protein eS30; UniProt P62861 103-115, looked up, fragment)
antimicrobial activity of peptide fragments (Staphylococcus aureus): demonstrated antimicrobial activity | antimicrobial activity of peptide fragments (Klebsiella pneumoniae): demonstrated antimicrobial activity | IC 99% (concentration which kills 99% of the micro-organisms) (micro-organisms): around 1 μM

KVAKQEKKKKKTGRAKRR [ubiquicidine (18-35)]
accumulation in the infected thigh muscle [1]: accumulate rapidly

KVHGSLARAGKVRGQTPK [ubiquicidine (1-18)]
accumulation in the infected thigh muscle [1]: accumulate rapidly

99mTc-labelled ubiquicidine 18-35: MAG3-derived ubiquicidine (18-35) labelled with the emitter 99mTc (hybrid molecule) (KVAKQEKKKKKTGRAKRR; also: MAG3 chelator conjugated, site not given here, 99mTc label; UniProt P62861 92-109, looked up, fragment)
accumulation in infection versus sterile inflammations [2]: in a nidus but not in inflammations | time to maximum accumulation compared with IgG [1]: much sooner than ^99Tc-IgG

^99Tc-ubiquicidine (1-18): ubiquicidine (1-18) labelled with technetium 99m (KVHGSLARAGKVRGQTPK; also: labelled with 99mTc, site not given here; UniProt P62861 75-92, looked up, fragment)
time to maximum accumulation compared with IgG [1]: much sooner than ^99Tc-IgG

[67Ga] [gallium 67]
time needed for accumulation [3]: at least 24 hours

— patent US6884776B1, “Antimicrobial peptides derived from ubiquicidine” (priority 1997, dated 2005)
